Assay results reported in patent US20230096766A1, “AMINO ACID HAVING FUNCTIONAL GROUP CAPABLE OF INTERMOLECULAR HYDROGEN BONDING, PEPTIDE COMPOUND CONTAINING SAME AND METHOD FOR PRODUCTION THEREOF” (Chugai Seiyaku Kabushiki Kaisha, priority 2018, published 2023).
*1 amine or outer side, *2 acyl side, *3 side chain or, on linkers, in order; H or OH if unused. Where a SMILES comes first, the peptide text is derived from it. Bridges are numbered along the chain shown (N, C = ends). [ ]: non-standard residue; d: D form. The star is where a group is joined. ξ: configuration not given here. dhPhe(4-CONHMe,3-OMe) = CNC(=O)c1ccc(CC[C@@H](N)C(=O)O)cc1OC; X14 = CC(C)[C@H](CC(=O)[C@H](Cc1ccccc1)N(C)[*:1])C(=O)[*:2]; Phe(3-CONHMe,4-OMe) = CNC(=O)c1cc(C[C@H](N)C(=O)O)ccc1OC; X11 = CNC(=O)c1ccc(CCN(CC(=O)[*:2])[*:1])cc1OC; NMePhe(3-Cl) = CN[C@@H](Cc1cccc(Cl)c1)C(=O)O; Ala(4-thiazolyl) = N[C@@H](Cc1cscn1)C(=O)O; ξGln(SO2Me) = CS(=O)(=O)NC(=O)CCC(N)C(=O)O; X7 = O=C(C[C@H](COCCO)N[*:1])[*:2]; NMeF = CN[C@@H](Cc1ccccc1)C(=O)O; NMeL = CN[C@@H](CC(C)C)C(=O)O; NMeV = CN[C@H](C(=O)O)C(C)C; NMeAbu = CC[C@H](NC)C(=O)O; Piperidide = C1CCN(*)CC1; CH2CMe2OH = CC(C)(O)C*; NBuGly = CCCCNCC(=O)O; NPrGly = CCCNCC(=O)O; Propyl(3-OH) = OCCC*; Sar = CNCC(=O)O; tBu = CC(C)(C)*

Assay: in vitro
Conditions: human

| SMILES | Papp (Caco-2, Caco-2 (cm/sec)) | further results |
| --- | --- | --- |
| CCCCN1CC(=O)N(C)[C@@H](Cc2ccccc2)C(=O)N[C@@H](COCCO)CC(=O)N(C)[C@@H](CC(C)C)C(=O)N[C@@H]([C@@H](C)O)C(=O)N(CCC)CC(=O)N(C)[C@@H](Cc2ccccc2)C(=O)N(C)[C@@H](CC(C)C)C(=O)N[C@@H](CC(C)C)C(=O)N(C)[C@@H](CC(C)C)C(=O)N[C@H](C(=O)N2CCCCC2)CC1=O [AP25] ([NBuGly][NMeF][X7][NMeL]T[NPrGly][NMeF][NMeL]L[NMeL]D-Piperidide; lactam N-11) | 0.62 ×10⁻⁶ cm/s | – |
| CCCCN1CC(=O)N(C)[C@@H](Cc2ccccc2)C(=O)NC(CCC(=O)NS(C)(=O)=O)C(=O)N(C)[C@@H](CC(C)C)C(=O)N[C@@H]([C@@H](C)O)C(=O)N(CCCC)CC(=O)N(C)[C@@H](Cc2ccccc2)C(=O)N(C)[C@@H](CC(C)C)C(=O)N[C@@H](CC(C)C)C(=O)N(C)[C@@H](CC(C)C)C(=O)N[C@H](C(=O)N2CCCCC2)CC1=O (stereo partly drawn) [pd65] ([NBuGly][NMeF][ξGln(SO2Me)][NMeL]T[NBuGly][NMeF][NMeL]L[NMeL]D-Piperidide; lactam N-11) | – | Papp (Caco-2, Caco-2): 0.06 ×10⁻⁶ cm/s |
| CCCCN1CC(=O)N(C)[C@@H](CC(C)C)C(=O)N[C@@H](COC(C)(C)C)C(=O)N(C)[C@@H](Cc2ccccc2)C(=O)N(C)[C@@H](C(C)C)C(=O)N[C@H](C(=O)N2CCCCC2)CC(=O)N[C@H](C(C)C)C(=O)N(C)[C@@H](Cc2ccccc2)C(=O)NC(CCC(=O)NS(C)(=O)=O)C(=O)N(C)[C@@H](CC(C)C)C(=O)N[C@@H](CC(C)C)C1=O (stereo partly drawn) [pd67] ([dV][NMeF][ξGln(SO2Me)][NMeL]L[NBuGly][NMeL]S(tBu)[NMeF][NMeV]D-Piperidide; lactam N-11) | – | Papp (Caco-2, Caco-2): 0.06 ×10⁻⁶ cm/s |
| CCCCN1CC(=O)N(C)[C@@H](CC(C)C)C(=O)N[C@@H](Cc2ccc(OC)c(C(=O)NC)c2)C(=O)N(C)[C@@H](CC(C)C)C(=O)N(C)[C@@H](CC(C)C)C(=O)N[C@H](C(=O)N2CCCCC2)CC(=O)N[C@H](CC(C)C)C(=O)N(C)[C@@H](Cc2ccccc2)C(=O)N[C@@H](C(C)C)C(=O)N(C)[C@@H](CC(C)C)C(=O)N[C@@H]([C@@H](C)O)C1=O [AP36] ([dL][NMeF]V[NMeL]T[NBuGly][NMeL][Phe(3-CONHMe,4-OMe)][NMeL][NMeL]D-Piperidide; lactam N-11) | 0.26 ×10⁻⁶ cm/s | – |
| CC(C)C[C@H]1C(=O)N[C@@H](COC(C)(C)C)C(=O)N(C)[C@@H](Cc2ccccc2)C(=O)N(C)[C@@H](CC(C)C)C(=O)N[C@H](C(=O)N2CCCCC2)CC(=O)N[C@H](C(C)C)C(=O)N(C)[C@@H](Cc2ccccc2)C(=O)N[C@@H](C(C)C)C(=O)N(C)[C@@H](Cc2ccccc2)C(=O)N[C@@H]([C@@H](C)O)C(=O)N(C)CC(=O)N1C [pd210] ([dV][NMeF]V[NMeF]T[Sar][NMeL]S(tBu)[NMeF][NMeL]D-Piperidide; lactam N-11) | 1.6 ×10⁻⁶ cm/s | – |
| CCCCN1CC(=O)N(C)[C@@H](CC(C)C)C(=O)N[C@H](C(=O)N2CCCCC2)CC(=O)N(C)[C@@H](C(C)C)C(=O)N[C@@H](COCCCO)C(=O)N(C)[C@@H](CC(C)C)C(=O)N(C)[C@@H](Cc2ccccc2)C(=O)C[C@@H](C(C)C)C(=O)N(C)[C@@H](Cc2ccccc2)C(=O)N(C)[C@@H](CC(C)C)C(=O)N[C@@H]([C@@H](C)O)C1=O [AP93] ([NMeV]S(Propyl(3-OH))[NMeL][X14][NMeF][NMeL]T[NBuGly][NMeL]D-Piperidide; lactam N-10) | 1.1 ×10⁻⁶ cm/s | – |
| CCCN1CC(=O)N(C)[C@@H](Cc2cccc(Cl)c2)C(=O)N(C)[C@@H](CC(C)C)C(=O)N[C@@H](COC(C)(C)C)C(=O)N(C)[C@@H](CC(C)C)C(=O)N[C@H](C(=O)N2CCCCC2)CC(=O)N(C)CC(=O)N(C)[C@@H](Cc2ccccc2)C(=O)N[C@@H](COCC(C)(C)O)C(=O)N(C)[C@@H](CC(C)C)C(=O)N[C@@H]([C@@H](C)O)C1=O [AP07] ([Sar][NMeF]S(CH2CMe2OH)[NMeL]T[NPrGly][NMePhe(3-Cl)][NMeL]S(tBu)[NMeL]D-Piperidide; lactam N-11) | 1.3 ×10⁻⁶ cm/s | – |
| CC[C@H]1C(=O)N[C@@H](CC(C)C)C(=O)N(C)[C@@H](CC(C)C)C(=O)N(C)[C@@H](Cc2ccccc2)C(=O)N[C@H](CCc2ccc(C(=O)NC)c(OC)c2)C(=O)N(C)[C@@H](CC(C)C)C(=O)N(C)[C@@H](CC(C)C)C(=O)N[C@@H]([C@@H](C)O)C(=O)N(C)CC(=O)N(C)[C@@H](CC(C)C)C(=O)N[C@H](C(=O)N2CCCCC2)CC(=O)N1C [AP212] ([NMeAbu]L[NMeL][NMeF][dhPhe(4-CONHMe,3-OMe)][NMeL][NMeL]T[Sar][NMeL]D-Piperidide; lactam N-11) | 0.64 ×10⁻⁶ cm/s | – |
| CC(C)C[C@@H]1NC(=O)[C@H](CC(C)C)N(C)C(=O)[C@H](CC(C)C)N(C)C(=O)CNC(=O)[C@H](Cc2ccccc2)N(C)C(=O)[C@H](Cc2cscn2)NC(=O)[C@H](CC(C)C)N(C)C(=O)[C@H](Cc2ccccc2)NC(=O)[C@H](C)NC(=O)C[C@@H](C(=O)N(C)[C@@H](Cc2ccccc2)C(=O)N[C@@H](C)C(=O)N2CCCCC2)NC1=O [pd235] (AF[NMeL][Ala(4-thiazolyl)][NMeF]G[NMeL][NMeL]LD[NMeF]A-Piperidide; lactam N-10) | – | Papp (Caco-2, Caco-2 (cm/sec) Papp): 0.1 ×10⁻⁶ cm/s |
| CC[C@H]1C(=O)N(C)[C@@H](Cc2ccccc2)C(=O)N[C@@H](C)C(=O)N(C)[C@@H](CC(C)C)C(=O)N(C)[C@@H](CC(C)C)C(=O)N[C@@H]([C@@H](C)O)C(=O)N(CCc2ccc(C(=O)NC)c(OC)c2)CC(=O)N(C)[C@@H](CC(C)C)C(=O)N[C@H](C(=O)N2CCCCC2)CC(=O)N(C)[C@@H](C(C)C)C(=O)N[C@@H](CC(C)C)C(=O)N1C [AP217] ([NMeV]L[NMeAbu][NMeF]A[NMeL][NMeL]T[X11][NMeL]D-Piperidide; lactam N-11) | 1 ×10⁻⁶ cm/s | – |
